Data published in patent US5110808A, “Amide derivatives, compositions and use” (Imperial Chemical Industries, PLC, priority 1990, dated 1992).
pIC50: −log10 of the molar value.

How the values were obtained:
aldose reductase [1] = target: T1, aldose reductase (Bos taurus, UniProt P16116); experiment: In vitro inhibition of partially purified aldose reductase from bovine lenses, spectrophotometric; format: biochemical
T1 construct: partially purified aldose reductase is isolated in known manner from bovine lenses; from tissue; host or cells: bovine lens
Text: Thus, in a standard procedure partially purified aldose reductase is isolated in known manner from bovine lenses. The percentage inhibition of this enzyme's ability in vitro to catalyse the reduction of aldoses to polyhydric alcohols, and particularly to reduce glucose to sorbitol, caused by a test compound can then be determined using standard spectrophotometric methods.

aldose reductase [2] = experiment: Reduction of sciatic nerve sorbitol in streptozotocin-diabetic rats (inhibition of aldose reductase in vivo); parameters: species or system rat; details: after 5 daily oral doses of 3 mg/kg
Protocol: Rats are made diabetic (as evidenced by severe glucosuria being present) by dosing with streptozotocin. The animals are then dosed daily with the test compound for one, two or five days. The animals are then sacrificed 2-6 hours after the final dose and the eye lenses and/or sciatic nerves are removed. After a standard work-up procedure the residual sorbitol levels in each tissue are determined by gas liquid chromatography after conversion to the polytrimethylsilyl derivatives. Inhibition of aldose reductase in vivo can then be assessed by comparing the residual sorbitol levels in tissues from the dosed diabetic group of rats with those of an undosed group of diabetic rats and an undosed, normal group of rats.
In a variation of the above test diabetic rats are dosed at a fixed daily oral dose for five days and then sacrificed 6 hours aftre the final dose and the reduction of sciatic nerve sorbitol assessed relative to that in control animals.

- pIC50 (aldose reductase [1]): ~7.22
SMILES: Cc1cc(NC(=O)C(=O)N(C(C)C)C(C)C)cc(C)c1S(=O)(=O)C[N+](=O)[O-] [Example 2, N,N-di-isopropyl-N'-[3,5-dimethyl-4-(nitromethylsulfonyl)phenyl]oxamide]
- reduction in sciatic nerve sorbitol levels (aldose reductase [2]): 82%
